Experimental data taken from patent US4547369A, “Antiviral agent” (Cabinet Harle & Phelip, priority 1973, dated 1985).

System: EMC virus, strain VR 125
Test: HPA 23 and murine interferon in EMC infected mice
Format: in vivo
Settings: no HPA 23
Excerpt: Synergism occurs between HPA 23 and murine interferon to combat viral infections in mice.
*Number of survival mice on inoculated mice
**range of death for dead mice

[1] = Interferon 1:3 25.000 I.U./mouse i.p.
[2] = Interferon 1:9 8.000 I.U./mouse i.p.
[3] = Interferon undiluted 75.000 I.U./mouse i.p.
[4] = Interferon undiluted 75.000 I.U./mouse i.v.

Interferon
Number of survival mice on inoculated mice [1]: 3/10
range of death for dead mice [1]: 5.5 ± 3.0 days
Number of survival mice on inoculated mice [2]: 1/10
range of death for dead mice [2]: 4.4 ± 2.1 days
Number of survival mice on inoculated mice [3]: 5/10
range of death for dead mice [3]: 7.1 ± 3.1 days
Number of survival mice on inoculated mice [4]: 6/10
range of death for dead mice [4]: 7.7 ± 2.9 days
